{"source": "patent US12024508B2", "about": "(priority 2018, dated 2024)", "key": {"[1]": {"experiment": "Toxicity (cell number) in MRC5 cells", "conditions": "human"}, "[2]": {"experiment": "Toxicity (cell number) in Hep2 cells", "conditions": "human"}, "hCMV-ANCHOR": {"test_system": "hCMV-ANCHOR", "experiment": "Antiviral activity, MRC5 cells with hCMV-ANCHOR", "format": "cell-based", "conditions": "for Selectivity index: CC50/CI50; for pIC50: Human betaherpesvirus 5, 144 h, MOI 1, fixation at 6 days, read-out: CI50 (the source's name)"}, "[3]": {"test_system": "Shiga toxin (Stx-1 and/or Stx-2)", "format": "cell-based, E. coli"}, "[4]": {"experiment": "Toxicity (cell number) in RK13 cells", "conditions": "rabbit"}, "VACV-ANCHOR": {"test_system": "VACV-ANCHOR", "experiment": "microbe, parasite or virus in culture", "format": "cell-based, Vaccinia virus", "conditions": "for Selectivity index: HeLa/VacV, CC50/CI50; for pIC50: Orthopoxvirus vaccinia, HeLa, 48 h, read-out: CI50"}, "Myxomavirus T1-ANCHOR": {"test_system": "Myxomavirus T1-ANCHOR", "experiment": "Antiviral activity, RK13 cells with Myxomavirus T1-ANCHOR", "format": "cell-based", "conditions": "for Selectivity index: RK13/MyxV T1, CC50/CI50; for pIC50: RK-13, 144 h, RK13/MyxV T1, MOI 0.05, fixation at 6 days, read-out: CI50 (the source's name)"}, "[5]": {"experiment": "Toxicity (cell number) in HeLa cells", "conditions": "human"}, "RSV": {"test_system": "RSV", "experiment": "Antiviral activity, Hep2 cells with RSV", "format": "cell-based", "conditions": "for Selectivity index: CC50/CI50; for pIC50: human respiratory syncytial virus, HEp-2, MOI 0.2, fixation at 72 hours, read-out: CI50 (the source's name)"}}, "note": "pIC50: −log10 of the molar value.", "data": [{"smiles": "Cc1nc(-c2ccc(C3N(C)c4ccc(F)cc4C(=O)N3c3ccccc3N)s2)cs1", "note": "(stereo not shown) [Compound 1]", "values": [{"measurement": "CC50 at 72 h", "setting": "[1]", "value": 21.5, "unit": "µM"}, {"measurement": "CC50 at 72 h", "setting": "[2]", "value": "> 50", "unit": "µM"}, {"measurement": "Selectivity index", "setting": "hCMV-ANCHOR", "value": "21,500"}, {"measurement": "pIC50", "setting": "hCMV-ANCHOR", "value": "> 9.00"}, {"measurement": "pIC50", "setting": "[3]", "value": 7.85}, {"measurement": "CC50 at 72 h", "setting": "[4]", "value": 7.46, "unit": "µM"}, {"measurement": "Selectivity index", "setting": "VACV-ANCHOR", "value": "47,619"}, {"measurement": "pIC50", "setting": "VACV-ANCHOR", "value": 8.98}, {"measurement": "Selectivity index", "setting": "Myxomavirus T1-ANCHOR", "value": "5,181"}, {"measurement": "pIC50", "setting": "Myxomavirus T1-ANCHOR", "value": 8.84}, {"measurement": "CC50 at 72 h", "setting": "[5]", "value": "> 50", "unit": "µM"}]}, {"smiles": "Cc1nc(-c2ccc(C3N(C)c4ccc(F)cc4C(=O)N3c3ccccc3O)s2)cs1", "note": "(stereo not shown) [Compound 2]", "values": [{"measurement": "Selectivity index", "setting": "RSV", "value": "1,880"}, {"measurement": "pIC50", "setting": "RSV", "value": 7.70}, {"measurement": "CC50 at 72 h", "setting": "[1]", "value": 21, "unit": "µM"}, {"measurement": "CC50 at 72 h", "setting": "[2]", "value": 37.6, "unit": "µM"}, {"measurement": "Selectivity index", "setting": "hCMV-ANCHOR", "value": "21,000"}, {"measurement": "pIC50", "setting": "hCMV-ANCHOR", "value": "> 9.00"}, {"measurement": "pIC50", "setting": "[3]", "value": 7.70}, {"measurement": "Selectivity index", "setting": "VACV-ANCHOR", "value": "8,947"}, {"measurement": "pIC50", "setting": "VACV-ANCHOR", "value": 8.44}, {"measurement": "pIC50", "setting": "Myxomavirus T1-ANCHOR", "value": 7.85}, {"measurement": "CC50 at 72 h", "setting": "[5]", "value": 32.3, "unit": "µM"}]}, {"smiles": "Cc1nc(-c2ccc(C3N(C)c4ccc(F)cc4C(=O)N3c3cccc(O)c3)s2)cs1", "note": "(stereo not shown) [Compound 3]", "values": [{"measurement": "pIC50", "setting": "[3]", "value": 7.26}]}, {"smiles": "Cc1nc(-c2ccc(C3N(C)c4ccccc4C(=O)N3c3ccccc3N)s2)cs1", "note": "(stereo not shown) [Compound 4]", "values": [{"measurement": "pIC50", "setting": "[3]", "value": 7.10}]}, {"smiles": "Cc1nc(-c2ccc(C3N(C)c4ccc(F)cc4C(=O)N3c3ccccc3S(N)(=O)=O)s2)cs1", "note": "(stereo not shown) [Compound 5]", "values": [{"measurement": "pIC50", "setting": "[3]", "value": 7.46}]}, {"smiles": "Cc1nc(-c2ccc(C3N(C)c4ccc(F)cc4C(=O)N3c3ccc(O)cc3)s2)cs1", "note": "(stereo not shown) [Compound 6]", "values": [{"measurement": "Selectivity index", "setting": "RSV", "value": 12}, {"measurement": "pIC50", "setting": "RSV", "value": 5.66}, {"measurement": "CC50 at 72 h", "setting": "[1]", "value": 16.7, "unit": "µM"}, {"measurement": "CC50 at 72 h", "setting": "[2]", "value": 25.6, "unit": "µM"}, {"measurement": "Selectivity index", "setting": "hCMV-ANCHOR", "value": 59}, {"measurement": "pIC50", "setting": "hCMV-ANCHOR", "value": 6.55}, {"measurement": "pIC50", "setting": "[3]", "value": 6.32}, {"measurement": "CC50 at 72 h", "setting": "[4]", "value": 12.9, "unit": "µM"}, {"measurement": "Selectivity index", "setting": "VACV-ANCHOR", "value": 32}, {"measurement": "pIC50", "setting": "VACV-ANCHOR", "value": 6.20}, {"measurement": "Selectivity index", "setting": "Myxomavirus T1-ANCHOR", "value": 2}, {"measurement": "pIC50", "setting": "Myxomavirus T1-ANCHOR", "value": 5.24}, {"measurement": "CC50 at 72 h", "setting": "[5]", "value": 20.4, "unit": "µM"}]}, {"smiles": "Cc1nc(-c2ccc(C3N(C)c4ccc(F)cc4C(=O)N3c3cccc(O)c3O)s2)cs1", "note": "(stereo not shown) [Compound 7]", "values": [{"measurement": "pIC50", "setting": "[3]", "value": 7.39}]}, {"smiles": "Cc1nc(-c2ccc(C3N(C)c4ccc(F)cc4C(=O)N3c3ccccc3)s2)cs1", "note": "(stereo not shown) [Retro-2.1]", "values": [{"measurement": "Selectivity index", "setting": "RSV", "value": 309}, {"measurement": "pIC50", "setting": "RSV", "value": 6.79}, {"measurement": "CC50 at 72 h", "setting": "[1]", "value": "> 50", "unit": "µM"}, {"measurement": "CC50 at 72 h", "setting": "[2]", "value": "> 50", "unit": "µM"}, {"measurement": "Selectivity index", "setting": "hCMV-ANCHOR", "value": "4,310"}, {"measurement": "pIC50", "setting": "hCMV-ANCHOR", "value": 7.94}, {"measurement": "pIC50", "setting": "[3]", "value": 7.00}, {"measurement": "CC50 at 72 h", "setting": "[4]", "value": 3.35, "unit": "µM"}, {"measurement": "Selectivity index", "setting": "VACV-ANCHOR", "value": "1,323"}, {"measurement": "pIC50", "setting": "VACV-ANCHOR", "value": 7.42}, {"measurement": "Selectivity index", "setting": "Myxomavirus T1-ANCHOR", "value": 45}, {"measurement": "pIC50", "setting": "Myxomavirus T1-ANCHOR", "value": 7.13}, {"measurement": "CC50 at 72 h", "setting": "[5]", "value": "> 50", "unit": "µM"}]}]}
